This is an account of results in US6825177B2, “Aryl phosphate derivatives of d4T with potent anti-viral activity” (Parker Hughes Institute, priority 2000, dated 2004).

Read-outs that look alike come from different tables or passages of the source.

Series [1] can be described thus: Stability in simulated intestinal fluid. The settings on record: 100 μM, 37° C. It counts as in vitro ADME. As for the experimental part:
(§1) The spiked fluids were then placed in a 37° C. water bath. At a predetermined time, 100 μl aliquots of the spiked gastric or intestinal fluid were extracted by adding 400 μl of acetone as discussed above.

In series [2] the test system is HIV replication in thymidine kinase-deficient T-cells. The settings on record: compared with d4T; cited from earlier work.
Series [3] is described as follows: Stability of HI-113 and Ala-d4T-MP in plasma. In kind it is in vitro ADME. As to conditions: for stability in plasma: 250 μM HI-113, 100 μM Ala-d4T-MP. The text has this: (§2) The HPLC system used for these studies was a Hewlett Packard (Palo Alto, Calif.) series 1100 instrument equipped with a quaternary pump, an autosampler, an automatic electronic degasser, an automatic thermostatic column compartment, a diode array detector and a computer with Chemstation software for data analysis (Chen et al., J. Chromatogr. B., 724, 157 (1999); Chen et al., J. Chromatogr. B., 727, 205 (1999); and Chen et al., J. Liq. Chromatogr., 22, 1771 (1999)). The analytical column used was a Zobax SB-Phenyl (5 μm, Hewlett Packard, Inc.) column attached to a guard column (Hewlett Packard, Inc.). The column was equilibrated prior to data collection. […] The detection wavelength was 268 nm, the peakwidth was less than 0.03 minutes, the response time was 0.5 seconds, and the slit was 4 nm.
(§3) Plasma samples (200 μL) were mixed 1:4 with acetone (800 μL) and vortexed for at least 30 seconds. Following centrifugation, the supernatant was transferred into a clean tube and was dried under nitrogen. A 50 μL solution of 50% methanol in 200 mM HCl was used to reconstitute the extraction residue, and 40 μL was injected into the HPLC.
(§4) The whole blood samples were placed in a 37° C. water bath, while plasma samples were stored at −20° C. At a predetermined time, an aliquot (100 μl) of spiked whole blood or plasma was extracted by adding 400 μl of acetone to induce precipitation of proteins, as described above.

The subject of series [4] is HIV replication in human peripheral blood mononuclear cells (PBMNC). As to conditions: compared with d4T; cited from earlier work.
The subject of series [5] is zidovudine (ZVD/AZT)-resistant HIV-1 strains. As to conditions: PBMNC; cited from earlier work.
Series [6] is described as follows: Pharmacokinetics of HI-113 and its metabolites after intravenous HI-113.
Method: (§5) Female Balb/c mice (6-8 weeks old) from Taconic (Germantown, N.Y.) were housed in a controlled environment (12-hours of light/12-hours of dark, 22±1° C., 60±10% relative humidity), which is fully accredited by the USDA. All rodents were housed in microisolator cages (Lab Products, Inc., N.J.) containing autoclaved bedding. The mice were allowed free access to autoclaved pellet food and tap water throughout the study.
(§6) All collected blood samples were heparinized and centrifuged at 7000×g for 5 minutes to separate the plasma fraction from the whole blood. The plasma samples were then processed immediately using the extraction procedure described above.
An appropriate model was chosen on the basis of the lowest sum of weighted squared residuals, the lowest Schwartz Criterion (SC), the lowest Akaike's Information Criterion (AIC) value, the lowest standard errors of the fitted parameters, and the dispersion of the residuals. The elimination half-life was estimated by linear regression analysis of the terminal phase of the plasma concentration-time profile. […] The systemic clearance (CL) was determined by dividing the dose by the AUC.
Series [7] is described as follows: Pharmacokinetics after oral administration of HI-113. It counts as in vivo, Balb/c mice.
Method: Female Balb/c mice (6-8 weeks old) from Taconic (Germantown, N.Y.) were housed in a controlled environment (12-hours of light/12-hours of dark, 22±1° C., 60±10% relative humidity), which is fully accredited by the USDA. All rodents were housed in microisolator cages (Lab Products, Inc., N.J.) containing autoclaved bedding. The mice were allowed free access to autoclaved pellet food and tap water throughout the study. All animal care procedures conformed to the Guide for the Care and Use of Laboratory Animals (National Research Council, National Academy Press, Washington D.C. 1996).
Sampling time points were 0, 2, 5, 10, 15, 30, 45, 60, 120, 240 and 360 minutes after the gavage. […]
Pharmacokinetic modeling and parameter calculations were carried out using the WinNonlin Professional Version 3.0 (Pharsight, Inc., Mountain, Calif.) pharmacokinetics software (Chen et al., Pharm. Res., 16, 1003 (1999); Chen et al., Pharm. Res., 16, 117 (1999); Chen et al., J. Clin. Pharmacol., 39, 1248 (1999); Uckun et al., Clin. Cancer Res., 5, 2954 (1999); and Uckun et al., J. Pharmacol. Exp. Ther., 291, 1301 (1999)). […] The area under the concentration-time curve (AUC) was calculated according to the linear trapezoidal rule between the first sampling time (0 hours) and the last sampling time plus C/k, where C is the concentration of the last sampling and k is the elimination rate constant. […]
A short description of series [8]: Stability of HI-113 in murine liver homogenates. It counts as in vitro ADME, Balb/c mice. The settings on record: 100 μM. The protocol: Fresh mouse liver was obtained from Balb/c mice and homogenated in 1×PBS (1:1, W/V) using a Polytron (PT-MR2000) homogenizer (Kinematical AG, Littau, Switzerland). […] At a predetermined time, an aliquot (100 μl) of spiked liver homogenate was extracted by adding 400 μl of acetone to induce precipitation of proteins, as described above.

Series [9] in a line: Stability in simulated gastric fluid. It counts as in vitro ADME. As to conditions: 100 μM, 37° C. As for the experimental part: as §1
For series [10] the following is noted: for effect of esterase inhibitor on decomposition of HI-113 in plasma: plasma pre-incubated with inhibitor at 37° C. for 30 minutes, 250 μM HI-113. As for the experimental part: Plasma samples were pre-incubated with the esterase inhibitors paraoxon (final concentration of 0.1 mM), physostigmine (final concentration of 0.1 mM), and EDTA (final concentration of 1M) at 37° C. for 30 minutes. […] The data in Table 1 was the mean percent hydrolysis from two experiments.

The nature of series [11]: Stability of HI-113 and Ala-d4T-MP in whole blood. It counts as in vitro ADME. The settings on record: 37° C.; for stability in whole blood: 250 μM HI-113, 100 μM Ala-d4T-MP.
Source text: as §2, §3, §4

The subject of another series is HIV-2. As to conditions: PBMNC; cited from earlier work.
A short description of series [12]: Pharmacokinetics of Ala-d4T-MP and its metabolite after intravenous Ala-d4T-MP. In kind it is in vivo, Balb/c mice.
Method: as §5
Blood samples (˜500 μL) were obtained from the ocular venous plexus by retro-orbital venipuncture at 0, 2, 5, 10, 15, 30, 45, 60, 120, 240 and 360 minutes after intravenous injection. […]
Pharmacokinetic modeling and parameter calculations were carried out using the WinNonlin Professional Version 3.0 (Pharsight, Inc., Mountain, Calif.) pharmacokinetics software (Chen et al., Pharm. Res., 16, 1003 (1999); Chen et al., Pharm. Res., 16, 117 (1999); Chen et al., J. Clin. Pharmacol., 39, 1248 (1999); Uckun et al., Clin. Cancer Res., 5, 2954 (1999); and Uckun et al., J. Pharmacol. Exp. Ther., 291, 1301 (1999)). […] The area under the concentration-time curve (AUC) was calculated according to the linear trapezoidal rule between the first sampling time (0 hours) and the last sampling time plus C/k, where C is the concentration of the last sampling and k is the elimination rate constant. The systemic clearance (CL) was determined by dividing the dose by the AUC. […]
The nature of series [13]: Pharmacokinetics of d4T after intravenous d4T. In kind it is in vivo, Balb/c mice. The settings on record: i.v. d4T 40 mg/kg.
Method: as §5
Blood samples (˜500 μL) were obtained from the ocular venous plexus by retro-orbital venipuncture at 0, 2, 5, 10, 15, 30, 45, 60, 120, 240 and 360 minutes after intravenous injection.
as §6
Pharmacokinetic modeling and parameter calculations were carried out using the WinNonlin Professional Version 3.0 (Pharsight, Inc., Mountain, Calif.) pharmacokinetics software (Chen et al., Pharm. Res., 16, 1003 (1999); Chen et al., Pharm. Res., 16, 117 (1999); Chen et al., J. Clin. Pharmacol., 39, 1248 (1999); Uckun et al., Clin. Cancer Res., 5, 2954 (1999); and Uckun et al., J. Pharmacol. Exp. Ther., 291, 1301 (1999)). An appropriate model was chosen on the basis of the lowest sum of weighted squared residuals, the lowest Schwartz Criterion (SC), the lowest Akaike's Information Criterion (AIC) value, the lowest standard errors of the fitted parameters, and the dispersion of the residuals. The elimination half-life was estimated by linear regression analysis of the terminal phase of the plasma concentration-time profile. The area under the concentration-time curve (AUC) was calculated according to the linear trapezoidal rule between the first sampling time (0 hours) and the last sampling time plus C/k, where C is the concentration of the last sampling and k is the elimination rate constant. The systemic clearance (CL) was determined by dividing the dose by the AUC. The metabolic clearance of the parent drug, the formation clearance of the metabolite, the clearance elimination of the metabolite, and the distribution clearance of the metabolite were estimated by simultaneous fitting of the concentration of parent drug and metabolites as a function of time curve to pharmacokinetic models (see FIGS. 7A & 8A) specified as a system of differential equations (Gabrielsson & Weiner, Phamacokinetic/Phamacodynamic Data Analysis: Concepts and Applications, Swedish Pharmaceutical Press (1997)).
[14] abbreviates: i.v. HI-113 100 mg/kg, plasma, estimated from composite curve of pooled data.
The mark [15] stands for this setting: i.v. HI-113 100 mg/kg, mean ± S.E.M.
The mark [16] stands for this setting: plasma, estimated from composite curve of pooled data.

For the compound `COC(=O)C(C)NP(=O)(OC[C@@H]1C=C[C@H](n2cc(C)c(=O)[nH]c2=O)O1)Oc1ccc(Br)cc1` (stereo partly shown) [HI-113, d4T-5′-[p-bromophenylmethoxyalaninyl phosphate]], the “stability in intestinal fluid” value in series [1] is “not stable”. The “HI-113 decomposed in intestinal fluid” value in series [1] (within 2 hours) was “approximately 94%”. The “potency in inhibiting HIV replication” value in series [2] and in [4] was “substantially more potent than d4T” throughout. Further, in [3] (250 μM), the “time until decomposition was complete in plasma” value is at most 30 min. Moreover, in series [3], the “stability in plasma” value was “very unstable”. Further, the “HI-113 decomposed following incubation with plasma” value in series [3] (after 5 minutes, 250 μM) was “over 95%”. Further, in series [5], the “concentration inhibiting replication of zidovudine (ZVD/AZT)-resistant HIV-1 strains” value was “nanomolar concentrations”. For the same compound, the VSS is 0.8199 L/kg in series [6] (setting [14]) and “(920 ± 127.4) ml/kg” in series [6] (setting [15]). For the same compound, in series [6] (setting [15]), the CL result is given as “(174.5 ± 13.2) ml/min/kg”. Besides, the “plasma concentration of the parent compound (below the detection limit)” value in series [7] (oral HI-113 100 mg/kg) is under 500 nM. For the same compound, the “time within which HI-113 decomposed in liver homogenate” value in series [8] was at most 30 min. Also, the “stability in gastric fluid” value in series [9] was “relatively stable in gastric fluid for 8 hours”. For the same compound, the “percent hydrolysis of HI-113 in plasma” value in series [10] (EDTA (1 mM), 10 min) came out at 100%; in series [10] (EDTA (1 mM), 15 min), 100%; in [10] (EDTA (1 mM), 30 min) it was 100%; in series [10] (EDTA (1 mM), 60 min), 100%; in series [10] (EDTA (1 mM), 120 min), 100%; in [10] (EDTA (1 mM), arylesterase, 5 min), 99%. In addition, the “percent hydrolysis of HI-113 in plasma” value turned out to be 2% in series [10] (Paraoxon (0.1 mM), 10 min); 2% in series [10] (Paraoxon (0.1 mM), 15 min); 2% in [10] (Paraoxon (0.1 mM), 30 min); 3% in [10] (Paraoxon (0.1 mM), 60 min); 24% in series [10] (Paraoxon (0.1 mM), 120 min); 0% in series [10] (Paraoxon (0.1 mM), cholinesterase & carboxylesterase, 5 min). Further, the “percent hydrolysis of HI-113 in plasma” value in series [10] (Physostigmine (0.1 mM), 10 min) is on record as 65%; in [10] (Physostigmine (0.1 mM), 15 min) it was 76%; in series [10] (Physostigmine (0.1 mM), 30 min), 89%; in [10] (Physostigmine (0.1 mM), 60 min) it was 100%; in series [10] (Physostigmine (0.1 mM), 120 min) it was 100%; in [10] (Physostigmine (0.1 mM), cholinesterase, 5 min), 43%. Moreover, the “percent hydrolysis of HI-113 in plasma” value is on record as 95% in series [10] (no inhibitor, 5 min, 250 μM HI-113, mean of two experiments); 98% in series [10] (no inhibitor, 10 min); 99% in [10] (no inhibitor, 15 min); 100% in series [10] (no inhibitor, 30 min); 100% in [10] (no inhibitor, 60 min); 100% in [10] (no inhibitor, 120 min). Also, the “stability in whole blood” value in series [11] is reported as “very unstable”. For the same compound, in series [11] (250 μM), the “time until decomposition was complete in whole blood” value is at most 30 min. Also, the “HI-113 decomposed in whole blood” value in series [11] (5 minutes, 250 μM) was determined as 68%; in series [11] (10 minutes, 250 μM), 87%; in [11] (15 minutes, 250 μM), 92%. In addition, in the series with HIV-2, the “concentration inhibiting replication of HIV-2” value is reported as “nanomolar concentrations”.

Consider `O=C(O)CN(CCN(CC(=O)O)CC(=O)O)CC(=O)O` [EDTA, reference compound], for which the “effect of esterase inhibitor on decomposition of HI-113 in plasma” value in [10] is reported as “not affected”.

`Cc1cn([C@H]2C=C[C@@H](COP(=O)(O)NC(C)C(=O)O)O2)c(=O)[nH]c1=O` (stereo partly shown) [Ala-d4T-MP, alaninyl-d4T-monophosphate]: the “stability in intestinal fluid” value in series [1] is given as “stable”. Besides, the “stability in plasma” value in [3] is “stable in both whole blood and plasma for 1 day”. Further, in series [12] (i.v. Ala-d4T-MP), the “CLm1 as share of the total systemic clearance” value is reported as 99%. Besides, the “fraction of HI-113 converted to the metabolite” value in series [6] (after intravenous HI-113) is 23%. Further, in [7] (after oral administration of HI-113), the “estimated bioavailability of the metabolite” value was “approximately 12%”. Besides, the “stability in whole blood” value in series [11] was “stable in both whole blood and plasma for 1 day”.

Take `CCOP(=O)(OCC)Oc1ccc([N+](=O)[O-])cc1` [paraoxon, reference compound]: the “effect of esterase inhibitor on decomposition of HI-113 in plasma” value in series [10] is listed as “significantly inhibited”.

With `Cc1cn([C@H]2C=C[C@@H](CO)O2)c(=O)[nH]c1=O` [d4T, 2′,3′-didehydro-2′,3′-dideoxythymidine], the “formation of d4T from intravenously administered Ala-d4T-MP (fraction converted)” value in series [12] (female, Balb/c, mouse, in vivo, iv) was determined as 15%. Besides, in series [6] (setting [14]), the t1/2 was 1.913 h. Also, in series [13] (setting [16]), the AUC (as a rule, concentration integrated over time) is 12227.1 µM·min; the CL is 15.0 mL/min/kg; the VSS was 0.6578 L/kg; the t1/2 is 0.505 h. In series [13] (mean ± S.E.M), the CL entry was “(15.2 ± 0.7) ml/min/kg”, the VSS entry is “(581.8 ± 62.8) ml/kg” and the t1/2 entry is listed as “(26.6 ± 1.2) min”.
